The conditions of data set [1]: cited from earlier work.
The test system of data set [2] is relapsing MS. The settings on record: Polman et al. 2005; cited from earlier work.
The test system of data set [3] is acute experimental autoimmune encephalomyelitis (aEAE) model. To be noted: U.S. Pat. No. 6,077,851; cited from earlier work.
Data set [4] can be described thus: formation of MEG-LAQ in LAQ formulation containing meglumine (stability). It counts as physicochemical. The settings on record: meglumine used in LAQ formulation. Here is the method: MEG-LAQ may form under certain conditions when meglumine is used in LAQ formulation. For example, MEG-LAQ is formed at 40° C. and 75% Relative Humidity (accelerated conditions). MEG-LAQ is also formed at room temperature at <0.1%.

These results are taken from patent US8809537B2, “N-ethyl-4-hydroxyl-1-methyl-5-(methyl(2,3,4,5,6-pentahydroxyhexyl)amino)-2-oxo-N-phenyl-1,2-dihydroquinoline-3-carboxamide” (Teva Pharmaceutical Industries, Ltd., priority 2012, dated 2014).

Structures are written as SMILES.

Turning to `CCN(C(=O)c1c(O)c2c(Cl)cccc2n(C)c1=O)c1ccccc1` [Laquinimod sodium], the oral bioavailability entry in data set [1] is on record as “high oral bioavailability”.

For the compound `CCN(C(=O)c1c(O)c2c(Cl)cccc2n(C)c1=O)c1ccccc1` [Laquinimod, N-ethyl-N-phenyl-1,2-dihydro-4-hydroxy-5-chloro-1-methyl-2-oxoquinoline-3-carboxamide], the “development of active MRI lesions” value in data set [2] is “can reduce development of active MRI lesions”. In addition, in data set [3], the “effectiveness in the aEAE model” value is reported as “effective”.

As to `CCN(C(=O)c1c(O)c2c(N(C)C[C@H](O)[C@@H](O)[C@H](O)[C@H](O)CO)cccc2n(C)c1=O)c1ccccc1` [MEG-LAQ, N-ethyl-4-hydroxyl-1-methyl-5-(methyl(2,3,4,5,6-pentahydroxyhexyl)amino)-2-oxo-N-phenyl-1,2-dihydroquinoline-3-carboxamide], the “MEG-LAQ formed in LAQ formulation” value in data set [4] (40° C. and 75% Relative Humidity (accelerated conditions)) is recorded as “formed”; in data set [4] (room temperature), below 0.1%.
